Assay results reported in ChEMBL document CHEMBL1146681, “Design and synthesis of 3,7-diarylimidazopyridines as inhibitors of the VEGF-receptor KDR” (Bioorg Med Chem Lett, 2004).

Assays:
[1] = target: T1, Vascular endothelial growth factor receptor 2 (Homo sapiens, UniProt P35968); experiment: Intrinsic potency against VEGF stimulated KDR phosphorylation; assay type: functional
[2] = target: T1, Vascular endothelial growth factor receptor 2; experiment: Inhibition of VEGF stimulated phosphorylation of KDR on tyrosine residues in human kidney cells expressing vascular endothelial growth factor receptor 2; assay type: cell-based
[3] = target: VEGF-receptor 2 and Fibroblast growth factor receptor 1 (Homo sapiens) (UniProt P35968+P11362); experiment: Selectivity for VEGF-receptor 2 over fibroblast growth factor receptor 1; assay type: protein assay
[4] = target: Vascular endothelial growth factor receptor 1 and 2 (Flt-1 and KDR) (Homo sapiens) (UniProt P17948+P35968); experiment: Selectivity for VEGF-receptor 2 over fms-like tyrosine kinase 1, VEGF-receptor 1; assay type: protein assay
[5] = target: VEGF-receptor 2 and tyrosine-protein kinase SRC (Homo sapiens) (UniProt P12931+P35968); experiment: Selectivity for VEGF-receptor 2 over c-Src tyrosine kinase; assay type: protein assay
[6] = target: Vascular endothelial growth factor receptor 2 and 3 (KDR and Flt-4) (Homo sapiens) (UniProt P35916+P35968); experiment: Selectivity of for VEGF-receptor 2 over fms-like tyrosine kinase-4, VEGF-receptor 3; assay type: protein assay
[7] = target: VEGF-receptor 2 and PDGF-receptor beta (KDR and PDGFR beta) (Homo sapiens) (UniProt P09619+P35968); experiment: Selectivity for VEGFR2 over platelet-derived growth factor receptor beta
[8] = target: Fibroblast growth factor receptor 4 (Homo sapiens) (UniProt P22455); experiment: Selectivity for fibroblast growth factor receptor 4
[9] = target: T1, Vascular endothelial growth factor receptor 2; experiment: Inhibition of phosphorylation of poly-Glu/Tyr (4:1) peptide substrate by VEGF-receptor 2 (KDR) kinase

T1 sequence (P35968 whole entry): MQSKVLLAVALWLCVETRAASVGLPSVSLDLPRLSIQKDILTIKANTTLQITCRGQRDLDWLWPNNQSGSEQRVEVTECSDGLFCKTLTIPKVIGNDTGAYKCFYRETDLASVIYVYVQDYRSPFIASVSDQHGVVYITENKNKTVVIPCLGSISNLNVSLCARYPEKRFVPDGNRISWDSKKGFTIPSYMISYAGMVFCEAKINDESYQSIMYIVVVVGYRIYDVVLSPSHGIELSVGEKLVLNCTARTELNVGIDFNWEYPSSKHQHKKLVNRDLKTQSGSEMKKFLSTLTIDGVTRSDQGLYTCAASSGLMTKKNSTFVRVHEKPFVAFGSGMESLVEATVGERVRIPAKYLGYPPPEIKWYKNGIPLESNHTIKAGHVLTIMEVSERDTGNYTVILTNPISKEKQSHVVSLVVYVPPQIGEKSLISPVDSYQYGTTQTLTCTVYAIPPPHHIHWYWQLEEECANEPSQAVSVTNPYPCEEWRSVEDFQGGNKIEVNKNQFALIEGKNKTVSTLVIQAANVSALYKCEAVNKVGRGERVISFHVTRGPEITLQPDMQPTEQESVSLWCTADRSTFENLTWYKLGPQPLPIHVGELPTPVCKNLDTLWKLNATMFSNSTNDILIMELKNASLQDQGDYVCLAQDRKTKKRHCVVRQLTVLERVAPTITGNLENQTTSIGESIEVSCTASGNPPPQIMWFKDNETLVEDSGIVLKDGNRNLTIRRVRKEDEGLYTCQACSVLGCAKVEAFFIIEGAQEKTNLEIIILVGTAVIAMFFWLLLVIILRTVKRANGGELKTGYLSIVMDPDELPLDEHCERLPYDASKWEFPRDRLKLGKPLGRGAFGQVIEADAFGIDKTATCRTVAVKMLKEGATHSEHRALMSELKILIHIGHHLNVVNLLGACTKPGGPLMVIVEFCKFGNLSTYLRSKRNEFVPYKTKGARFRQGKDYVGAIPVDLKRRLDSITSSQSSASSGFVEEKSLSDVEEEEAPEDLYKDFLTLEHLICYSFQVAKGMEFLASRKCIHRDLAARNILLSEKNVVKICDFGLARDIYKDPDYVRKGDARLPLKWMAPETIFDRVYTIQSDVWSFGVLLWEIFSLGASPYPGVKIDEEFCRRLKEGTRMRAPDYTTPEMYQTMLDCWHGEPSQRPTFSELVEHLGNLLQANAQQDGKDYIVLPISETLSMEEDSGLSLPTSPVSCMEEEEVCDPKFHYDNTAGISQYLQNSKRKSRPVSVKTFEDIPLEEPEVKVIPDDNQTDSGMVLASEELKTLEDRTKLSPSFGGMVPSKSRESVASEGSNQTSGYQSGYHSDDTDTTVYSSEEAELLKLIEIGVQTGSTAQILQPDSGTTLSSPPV
Vascular endothelial growth factor receptor 1 and 2 (Flt-1 and KDR) (Homo sapiens), sequence (P17948 whole entry, looked up): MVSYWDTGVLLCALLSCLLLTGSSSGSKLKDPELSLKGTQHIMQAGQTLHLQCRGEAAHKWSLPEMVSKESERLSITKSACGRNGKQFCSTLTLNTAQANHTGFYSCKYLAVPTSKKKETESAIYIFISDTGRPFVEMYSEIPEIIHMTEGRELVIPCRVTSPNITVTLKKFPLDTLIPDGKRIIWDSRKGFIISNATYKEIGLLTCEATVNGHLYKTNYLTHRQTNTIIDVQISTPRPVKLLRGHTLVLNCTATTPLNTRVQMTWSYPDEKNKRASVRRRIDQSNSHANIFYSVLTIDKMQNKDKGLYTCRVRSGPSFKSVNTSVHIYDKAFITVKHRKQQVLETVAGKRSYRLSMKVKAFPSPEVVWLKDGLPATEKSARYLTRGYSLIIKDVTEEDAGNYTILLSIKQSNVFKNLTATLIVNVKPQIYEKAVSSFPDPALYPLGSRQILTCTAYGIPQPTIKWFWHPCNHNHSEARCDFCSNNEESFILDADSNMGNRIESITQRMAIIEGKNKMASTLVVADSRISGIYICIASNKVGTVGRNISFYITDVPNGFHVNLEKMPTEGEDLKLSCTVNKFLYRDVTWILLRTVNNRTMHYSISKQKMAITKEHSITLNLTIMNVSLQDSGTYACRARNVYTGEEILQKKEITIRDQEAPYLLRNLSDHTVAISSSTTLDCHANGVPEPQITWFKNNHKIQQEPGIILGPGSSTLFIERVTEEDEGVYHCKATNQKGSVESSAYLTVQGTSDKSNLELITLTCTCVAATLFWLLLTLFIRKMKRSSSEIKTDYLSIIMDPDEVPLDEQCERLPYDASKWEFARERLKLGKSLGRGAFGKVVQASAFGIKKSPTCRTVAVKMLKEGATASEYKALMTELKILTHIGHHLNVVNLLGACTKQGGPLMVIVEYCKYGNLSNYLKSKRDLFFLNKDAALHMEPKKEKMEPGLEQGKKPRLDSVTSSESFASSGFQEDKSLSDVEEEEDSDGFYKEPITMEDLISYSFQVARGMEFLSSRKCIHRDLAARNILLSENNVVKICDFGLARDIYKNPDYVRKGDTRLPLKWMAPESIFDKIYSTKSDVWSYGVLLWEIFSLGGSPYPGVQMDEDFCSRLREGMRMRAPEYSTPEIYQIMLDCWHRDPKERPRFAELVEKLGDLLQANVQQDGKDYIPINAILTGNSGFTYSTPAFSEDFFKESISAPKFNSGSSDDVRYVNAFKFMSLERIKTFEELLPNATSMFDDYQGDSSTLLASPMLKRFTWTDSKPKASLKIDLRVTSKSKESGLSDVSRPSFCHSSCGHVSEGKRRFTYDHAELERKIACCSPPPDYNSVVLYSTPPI
Vascular endothelial growth factor receptor 1 and 2 (Flt-1 and KDR) (Homo sapiens), sequence (P35968 whole entry, looked up): as the sequence (P35968 whole entry) above
VEGF-receptor 2 and tyrosine-protein kinase SRC (Homo sapiens), sequence (P12931 whole entry, looked up): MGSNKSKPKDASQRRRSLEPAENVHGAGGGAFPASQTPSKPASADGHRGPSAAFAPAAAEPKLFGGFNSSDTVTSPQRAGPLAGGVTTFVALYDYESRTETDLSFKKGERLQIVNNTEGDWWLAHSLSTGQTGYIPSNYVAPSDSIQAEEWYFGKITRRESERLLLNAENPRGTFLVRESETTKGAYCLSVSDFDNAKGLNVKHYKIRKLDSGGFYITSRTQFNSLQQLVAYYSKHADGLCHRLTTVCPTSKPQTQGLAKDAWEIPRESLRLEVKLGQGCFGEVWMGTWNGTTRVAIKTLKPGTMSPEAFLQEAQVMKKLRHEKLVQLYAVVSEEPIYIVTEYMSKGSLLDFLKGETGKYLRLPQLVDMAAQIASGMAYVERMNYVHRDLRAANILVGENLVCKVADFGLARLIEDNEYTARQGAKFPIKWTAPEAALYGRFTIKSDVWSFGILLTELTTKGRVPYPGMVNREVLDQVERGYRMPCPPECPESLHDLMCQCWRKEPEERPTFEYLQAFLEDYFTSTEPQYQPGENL
VEGF-receptor 2 and tyrosine-protein kinase SRC (Homo sapiens), sequence (P35968 whole entry, looked up): as the sequence (P35968 whole entry) above
Vascular endothelial growth factor receptor 2 and 3 (KDR and Flt-4) (Homo sapiens), sequence (P35916 whole entry, looked up): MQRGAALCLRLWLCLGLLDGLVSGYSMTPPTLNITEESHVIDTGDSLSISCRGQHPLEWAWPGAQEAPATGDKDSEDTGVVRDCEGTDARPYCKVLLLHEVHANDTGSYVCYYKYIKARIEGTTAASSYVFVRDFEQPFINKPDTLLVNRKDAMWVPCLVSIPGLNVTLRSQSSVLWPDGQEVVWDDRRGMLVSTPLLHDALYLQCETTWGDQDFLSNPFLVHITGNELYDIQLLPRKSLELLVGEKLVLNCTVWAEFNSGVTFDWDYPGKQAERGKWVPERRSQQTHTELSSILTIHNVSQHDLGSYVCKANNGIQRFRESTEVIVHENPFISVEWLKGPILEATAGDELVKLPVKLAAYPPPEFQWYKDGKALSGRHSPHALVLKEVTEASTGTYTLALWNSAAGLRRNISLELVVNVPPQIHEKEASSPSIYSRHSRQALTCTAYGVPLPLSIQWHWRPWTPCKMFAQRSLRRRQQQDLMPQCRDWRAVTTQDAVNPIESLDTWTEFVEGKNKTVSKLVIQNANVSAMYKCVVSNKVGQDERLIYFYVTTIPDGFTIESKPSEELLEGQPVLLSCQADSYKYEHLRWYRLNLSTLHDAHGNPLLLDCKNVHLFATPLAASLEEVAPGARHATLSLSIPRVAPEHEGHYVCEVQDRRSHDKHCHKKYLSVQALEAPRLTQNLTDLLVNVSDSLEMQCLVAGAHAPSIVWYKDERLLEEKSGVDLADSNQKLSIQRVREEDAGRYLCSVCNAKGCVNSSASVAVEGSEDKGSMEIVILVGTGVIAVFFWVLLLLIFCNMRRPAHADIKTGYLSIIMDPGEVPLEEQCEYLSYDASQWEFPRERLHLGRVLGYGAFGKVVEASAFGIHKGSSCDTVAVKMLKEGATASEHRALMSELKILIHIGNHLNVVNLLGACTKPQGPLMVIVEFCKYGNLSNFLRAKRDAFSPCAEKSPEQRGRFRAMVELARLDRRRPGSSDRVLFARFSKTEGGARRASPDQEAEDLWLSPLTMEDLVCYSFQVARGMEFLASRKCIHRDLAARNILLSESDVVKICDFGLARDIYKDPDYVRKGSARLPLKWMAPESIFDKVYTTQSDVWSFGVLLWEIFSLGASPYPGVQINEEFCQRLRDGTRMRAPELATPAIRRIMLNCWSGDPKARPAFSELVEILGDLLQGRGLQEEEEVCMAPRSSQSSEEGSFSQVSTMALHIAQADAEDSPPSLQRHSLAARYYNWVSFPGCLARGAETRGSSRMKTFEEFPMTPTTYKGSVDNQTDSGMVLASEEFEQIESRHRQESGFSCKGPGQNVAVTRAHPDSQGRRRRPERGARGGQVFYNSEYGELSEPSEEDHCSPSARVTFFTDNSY
Vascular endothelial growth factor receptor 2 and 3 (KDR and Flt-4) (Homo sapiens), sequence (P35968 whole entry, looked up): as the sequence (P35968 whole entry) above

Structure (SMILES)	IC50 [1] [µM]	IC50 [2] [µM]	also measured
CN(C)CC1CCCN(CCCn2ccc(-c3ccn4c(-c5ccccc5)cnc4c3)cc2=O)C1 (configuration not stated)	0.28	0.067	
c1ccc(-c2ccn3c(-c4cncs4)cnc3c2)cc1		0.099	
CNC(=O)N1CCN(Cc2ccc(-c3ccn4c(-c5ccccc5)cnc4c3)cc2)CC1	0.41	0.052	
CC(=O)N1CCN(Cc2ccc(-c3ccn4c(-c5ccccc5)cnc4c3)cc2)CC1	0.3	0.077	
COc1ccc(-c2cnc3cc(-c4ccccc4)ccn23)cn1			IC50 [9]: 2.84 µM
c1ccc(-c2ccn3c(-c4ccccc4)cnc3c2)cc1		0.098	
CS(=O)(=O)N1CCN(Cc2ccc(-c3ccn4c(-c5ccccc5)cnc4c3)cc2)CC1	0.11	0.013	
c1ccc(-c2ccn3c(-c4ccncc4)cnc3c2)cc1		0.145	
c1ccc(-c2ccn3c(-c4cnsc4)cnc3c2)cc1		0.05	
NC(=O)N1CCN(Cc2ccc(-c3ccn4c(-c5ccccc5)cnc4c3)cc2)CC1		0.069	

Continued, in another order:

IC50 [1] [µM]	IC50 [2] [µM]	Structure (SMILES)	also measured
	0.042	c1ccc(-c2ccn3c(-c4nccs4)cnc3c2)cc1	Selectivity [3]: 47; Selectivity [4]: 7; Selectivity [5]: 165; Selectivity [6]: 1.7; Selectivity [7]: 1.4; Selectivity [8]: 23
	0.12	O=c1cc(-c2ccn3c(-c4ccccc4)cnc3c2)ccn1CCCO	
	0.242	COc1cccc(-c2cnc3cc(-c4ccccc4)ccn23)n1	
	0.93	c1ccc(-c2ccn3c(-c4cccnc4)cnc3c2)cc1	
0.051	0.028	O=c1cc(-c2ccn3c(-c4ccccc4)cnc3c2)ccn1CCCN1CCCCC1	Selectivity [3]: 60; Selectivity [4]: 3.1; Selectivity [5]: 68; Selectivity [6]: 2.8; Selectivity [7]: 1
	0.096	COCCN(C)CCCn1ccc(-c2ccn3c(-c4ccccc4)cnc3c2)cc1=O	
